SMILES strings stand for the structures. Active and inactive are the calls of the source. No cut-off for these calls is given here.

Data set [1] deals with T1, NAD-dependent protein deacetylase (Schistosoma mansoni, UniProt T1VXA1).
T1 sequence (T1VXA1 whole entry): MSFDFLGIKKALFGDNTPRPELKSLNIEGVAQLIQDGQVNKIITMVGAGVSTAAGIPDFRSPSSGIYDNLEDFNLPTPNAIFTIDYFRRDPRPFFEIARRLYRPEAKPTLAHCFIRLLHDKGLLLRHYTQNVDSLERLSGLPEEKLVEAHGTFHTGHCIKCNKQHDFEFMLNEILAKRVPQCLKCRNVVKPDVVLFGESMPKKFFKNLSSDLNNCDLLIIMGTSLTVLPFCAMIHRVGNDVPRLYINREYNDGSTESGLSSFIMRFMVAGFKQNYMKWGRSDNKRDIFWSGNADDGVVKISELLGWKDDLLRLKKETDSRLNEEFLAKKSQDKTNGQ
The data set can be described thus: Inhibition of recombinant Schistosoma mansoni sirtuin 2 (21 to 322 residues) expressed in Escherichia coli BL21(DE3) cells using ZMAL as substrate after 1 hr in presence of NAD+ by homogeneous fluorescence based analysis.

Data set [2] has as its target T2, NAD-dependent protein deacetylase sirtuin-2 (Homo sapiens, UniProt Q8IXJ6).
T2 sequence (Q8IXJ6 whole entry): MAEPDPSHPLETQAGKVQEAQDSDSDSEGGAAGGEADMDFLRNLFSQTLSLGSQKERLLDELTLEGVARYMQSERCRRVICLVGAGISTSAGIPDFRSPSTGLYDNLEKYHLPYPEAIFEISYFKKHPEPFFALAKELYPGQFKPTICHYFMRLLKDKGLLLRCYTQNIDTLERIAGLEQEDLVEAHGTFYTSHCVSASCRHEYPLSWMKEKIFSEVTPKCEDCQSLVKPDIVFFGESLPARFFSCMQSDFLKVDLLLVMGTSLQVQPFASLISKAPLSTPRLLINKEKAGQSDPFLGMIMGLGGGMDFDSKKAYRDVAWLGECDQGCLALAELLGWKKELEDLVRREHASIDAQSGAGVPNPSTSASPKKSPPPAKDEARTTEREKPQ
The data set can be described thus: Inhibition of N-terminal His6 tagged human sirtuin 2 (25 to 389 residues) at 25 uM using Cbz-Lys(acetyl)-AMC as substrate after 4 hrs in presence of NAD+ by homogeneous fluorescence based analysis relative to control.

The target of data set [3] is T3, NAD-dependent protein deacetylase (Schistosoma mansoni) (UniProt T1VXA1).
T3 sequence (whole entry): T1 sequence (T1VXA1 whole entry)
The data set can be described thus: Inhibition of recombinant Schistosoma mansoni sirtuin 2 (21 to 322 residues) expressed in Escherichia coli BL21(DE3) cells assessed as inhibition of substrate demyristoylation at 20 uM using (Z)-(Myr)-Lys-AMC as susbtrate after 1 hr in presence of NAD+ by homogeneous fluorescence based analysis relative to control.

The target of data set [4] is T2, NAD-dependent protein deacetylase sirtuin-2. The data set can be described thus: Inhibition of N-terminal His6 tagged human sirtuin 2 (25 to 389 residues) assessed as inhibition of substrate demyristoylation using (Z)-(Myr)-Lys-AMC as susbtrate after 4 hrs in presence of NAD+ by homogeneous fluorescence based analysis.
Data set [5] addresses T4, NAD-dependent protein deacetylase sirtuin-1 (Homo sapiens, UniProt Q96EB6).
T4 sequence (Q96EB6 whole entry): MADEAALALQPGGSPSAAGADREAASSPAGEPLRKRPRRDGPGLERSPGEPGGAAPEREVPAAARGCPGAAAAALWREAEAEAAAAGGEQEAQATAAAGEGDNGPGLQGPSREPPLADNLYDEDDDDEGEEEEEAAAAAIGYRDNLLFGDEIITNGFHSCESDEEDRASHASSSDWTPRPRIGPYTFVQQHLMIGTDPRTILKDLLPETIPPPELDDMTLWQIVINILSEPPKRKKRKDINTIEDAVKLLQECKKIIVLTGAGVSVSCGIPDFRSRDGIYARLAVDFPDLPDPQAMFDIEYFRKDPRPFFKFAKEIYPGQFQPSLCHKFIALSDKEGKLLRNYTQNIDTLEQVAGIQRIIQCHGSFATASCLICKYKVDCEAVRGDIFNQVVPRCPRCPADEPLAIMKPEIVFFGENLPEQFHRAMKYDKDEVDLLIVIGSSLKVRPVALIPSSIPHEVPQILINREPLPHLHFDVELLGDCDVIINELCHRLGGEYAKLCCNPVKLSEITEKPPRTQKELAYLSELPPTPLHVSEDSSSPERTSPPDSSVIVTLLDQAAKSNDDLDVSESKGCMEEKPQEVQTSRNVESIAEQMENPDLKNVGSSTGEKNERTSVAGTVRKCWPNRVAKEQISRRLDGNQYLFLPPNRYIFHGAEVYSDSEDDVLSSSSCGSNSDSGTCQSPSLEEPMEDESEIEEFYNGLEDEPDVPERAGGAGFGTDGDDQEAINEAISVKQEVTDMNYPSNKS
The data set can be described thus: Inhibition of human sirtuin 1 at 25 uM relative to control.

The target of data set [6] is T5, NAD-dependent protein deacetylase sirtuin-3, mitochondrial (Homo sapiens, UniProt Q9NTG7).
T5 sequence (Q9NTG7 whole entry): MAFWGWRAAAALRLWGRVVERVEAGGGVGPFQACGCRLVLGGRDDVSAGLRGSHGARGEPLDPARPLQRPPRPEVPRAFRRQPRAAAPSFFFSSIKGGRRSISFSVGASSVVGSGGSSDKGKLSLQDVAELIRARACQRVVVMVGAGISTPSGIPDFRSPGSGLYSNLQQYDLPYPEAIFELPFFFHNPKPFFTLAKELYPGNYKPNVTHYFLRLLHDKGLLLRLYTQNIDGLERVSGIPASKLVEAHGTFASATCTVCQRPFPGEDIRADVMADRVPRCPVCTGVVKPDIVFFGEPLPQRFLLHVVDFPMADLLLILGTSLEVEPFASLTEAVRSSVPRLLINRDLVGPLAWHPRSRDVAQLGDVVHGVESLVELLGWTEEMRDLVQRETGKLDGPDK
The data set can be described thus: Inhibition of human sirtuin 3 at 25 uM relative to control.

In data set [7] the test system is Schistosoma mansoni. The data set is described as follows: Antiparasitic activity against Schistosoma mansoni Puerto Rico assessed as reduction in parasite viability at 10 to 20 uM after 72 hrs by microscopic analysis. Type of data set: functional, organism-based.
Data set [8] has as its system Schistosoma mansoni. The data set can be described thus: Antiparasitic activity against adult Schistosoma mansoni Puerto Rico assessed as reduction in worm pairing at 10 to 20 uM after 24 hrs by microscopic analysis. Type of data set: functional, organism-based.
Data set [9] concerns Schistosoma mansoni. The data set is described as follows: Antiparasitic activity against adult Schistosoma mansoni Puerto Rico assessed as reduction in egg laying at 10 to 20 uM after 24 hrs by microscopic analysis. Type of data set: functional, organism-based.
The subject of the next data set is HL-60. The data set can be described thus: Cytotoxicity against human HL60 cells at 10 uM after 72 hrs by Cell titer MTS dye based analysis. Particulars: hl-60, 72 h. Background: Tetrazolium dyes change colour on reduction, which living cells bring about.
The target of data set [10] is T3, NAD-dependent protein deacetylase (Schistosoma mansoni). The data set can be described thus: Inhibition of recombinant Schistosoma mansoni sirtuin 2 (21 to 322 residues) expressed in Escherichia coli BL21(DE3) cells assessed as inhibition of substrate deacetylation at 20 uM using ZMAL as substrate relative to control.
Data set [11] has the same target. The data set can be described thus: Inhibition of recombinant Schistosoma mansoni sirtuin 2 (21 to 322 residues) expressed in Escherichia coli BL21(DE3) cells assessed as inhibition of substrate demyristoylation at 20 uM using (Z)-(Myr)-Lys-AMC as substrate relative to control.
Data set [12] deals with T2, NAD-dependent protein deacetylase sirtuin-2. The data set can be described thus: Inhibition of human sirutin 2 assessed as inhibition of susbtrate demyristoylation at 20 uM using (Z)-(Myr)-Lys-AMC as substrate relative to control.
The target is the same in data set [13]. The data set is described as follows: Inhibition of N-terminal His6 tagged human sirtuin 2 (25 to 389 residues) at 50 uM using Cbz-Lys(acetyl)-AMC as substrate after 4 hrs in presence of NAD+ by homogeneous fluorescence based analysis relative to control.
For data set [14], the target named is T3, NAD-dependent protein deacetylase (Schistosoma mansoni). The data set is described as follows: Inhibition of recombinant Schistosoma mansoni sirtuin 2 (21 to 322 residues) expressed in Escherichia coli BL21(DE3) cells at 25 uM using ZMAL as susbtrate after 1 hr in presence of NAD+ by homogeneous fluorescence based analysis relative to control.
Data set [15] concerns the target T2, NAD-dependent protein deacetylase sirtuin-2. The data set can be described thus: Inhibition of N-terminal His6 tagged human sirtuin 2 (25 to 389 residues) assessed as inhibition of substrate demyristoylation at 20 uM using (Z)-(Myr)-Lys-AMC as susbtrate after 4 hrs in presence of NAD+ by homogeneous fluorescence based analysis relative to control.
The target is the same in data set [16]. The data set is described as follows: Inhibition of N-terminal His6 tagged human sirtuin 2 (25 to 389 residues) using Cbz-Lys(acetyl)-AMC as substrate after 4 hrs in presence of NAD+ by homogeneous fluorescence based analysis.
Data set [17] is described as follows: Selectivity ratio of IC50 for N-terminal His6 tagged human sirtuin 2 (25 to 389 residues) to IC50 for recombinant Schistosoma mansoni sirtuin 2 (21 to 322 residues) expressed in Escherichia coli BL21(DE3) cells.

Regarding `COc1cc(OC)cc(Oc2ccc(C(c3ccccc3)N(C)c3ncc4c(N)nc(N)nc4n3)cc2)c1` (stereo unspecified), the IC50 – broadly, the concentration that gives 50% inhibition – in [1] was determined as 3.3 µM; in data set [4], 13.1 µM. In addition, the inhibition (commonly the percentage by which the read-out fell short of the control) at 25 µM is 29.6% in data set [2], less than 15% in data set [5] and less than 15% in data set [6]. The inhibition in [3] was less than 15%. Besides, the inhibition result in the data set on Schistosoma mansoni [7], with Schistosoma mansoni [8] and in the data set with Schistosoma mansoni [9] was “Active” each time. Moreover, the Activity result with HL-60 is on record as “Non-Toxic”.
On to `Cc1cc(C)nc(SCC(=O)Nc2ncc(Cc3cccc4ccccc34)s2)n1`, for which the inhibition in data set [10] and in data set [11] was less than 15% throughout. Also, the inhibition at 20 µM in data set [12] was less than 15%.
For the compound `O=C(c1cc2cc(Cl)ccc2[nH]1)N1CCCCC1c1cccnc1` (stereo unspecified), the IC50 in data set [1] came out at 18.2 µM. The inhibition at 50 µM in data set [13] is less than 15%.
Regarding `COc1cc(OC)cc(Sc2ccc(C(C)N(C)c3ncc4c(N)nc(N)nc4n3)cc2)c1` (stereo unspecified), the IC50 in data set [1] is 4.3 µM; in data set [4] it was 25.1 µM. For the same compound, the results for the inhibition at 25 µM in [2], in [5] and in [6] were 27.9%, less than 15% and less than 15%, respectively. Further, the inhibition in [3] was 15%. Further, the inhibition entry in the data set on Schistosoma mansoni [7], in the data set with Schistosoma mansoni [8] and in the data set on Schistosoma mansoni [9] was “Active” each time. Also, the Activity entry in the data set with HL-60 is “Non-Toxic”.
For `COc1ccc(C(=O)Nc2ccc(C(C)N(C)c3ncc4c(N)nc(N)nc4n3)cc2)cc1` (stereo unspecified), the inhibition at 25 µM in [2] was less than 15%. Further, the inhibition in data set [14] is 41.9%; in [3], less than 15%. In data set [15], the inhibition at 20 µM is less than 15%.
Consider `COc1cc(OC)cc(Sc2ccc(C(c3ccccc3)N(C)c3ncc4c(N)nc(N)nc4n3)cc2)c1` (stereo unspecified), for which the values for the IC50 in data set [1], in [16] and in data set [4] were 2 µM, 21.5 µM and 15.6 µM, respectively. Besides, in data set [3], the inhibition was less than 15%. The inhibition result with Schistosoma mansoni [7], with Schistosoma mansoni [8] and with Schistosoma mansoni [9] was “Active” throughout. Also, the Ratio IC50 in data set [17] turned out to be 10.
For `CSc1ccc(Oc2ccc(C(C)N(C)c3ncc4c(N)nc(N)nc4n3)cc2)cc1` (stereo unspecified), the inhibition at 25 µM in data set [2] was less than 15%. Further, the inhibition is 49% in data set [14] and less than 15% in [3]. The inhibition at 20 µM in [15] came to 38.1%.
